Data from patent US10196390B2, “TYK2 inhibitors and uses thereof” (Nimbus Lakshmi, Inc., priority 2014, dated 2019).
Read-outs that look alike come from different tables or passages of the source.

Columns and labels:
TYK2 = TYK2 (Homo sapiens (Human), UniProt P29597); test: Tyk2 activity inhibition assay (radioactive kinase assay / Caliper assay); assay type: biochemical
Method in brief: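 Radiometric format: TYK2 with peptide substrate (20 μM) and 33P-ATP at 10 μM in HEPES pH 7.5, 1% DMSO, 120 min at room temp, P81 paper capture. Caliper mobility-shift format: TYK2 9.75 nM, peptide 30 at 3 uM, ATP 16 uM (also 1 mM), 25 min at 28° C.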

JAK2 = JAK2 (Homo sapiens (Human), UniProt O60674); test: JAK2 activity inhibition assay (radioactive kinase assay / Caliper assay); assay type: biochemical
Chain of JAK2 (O60674 whole entry): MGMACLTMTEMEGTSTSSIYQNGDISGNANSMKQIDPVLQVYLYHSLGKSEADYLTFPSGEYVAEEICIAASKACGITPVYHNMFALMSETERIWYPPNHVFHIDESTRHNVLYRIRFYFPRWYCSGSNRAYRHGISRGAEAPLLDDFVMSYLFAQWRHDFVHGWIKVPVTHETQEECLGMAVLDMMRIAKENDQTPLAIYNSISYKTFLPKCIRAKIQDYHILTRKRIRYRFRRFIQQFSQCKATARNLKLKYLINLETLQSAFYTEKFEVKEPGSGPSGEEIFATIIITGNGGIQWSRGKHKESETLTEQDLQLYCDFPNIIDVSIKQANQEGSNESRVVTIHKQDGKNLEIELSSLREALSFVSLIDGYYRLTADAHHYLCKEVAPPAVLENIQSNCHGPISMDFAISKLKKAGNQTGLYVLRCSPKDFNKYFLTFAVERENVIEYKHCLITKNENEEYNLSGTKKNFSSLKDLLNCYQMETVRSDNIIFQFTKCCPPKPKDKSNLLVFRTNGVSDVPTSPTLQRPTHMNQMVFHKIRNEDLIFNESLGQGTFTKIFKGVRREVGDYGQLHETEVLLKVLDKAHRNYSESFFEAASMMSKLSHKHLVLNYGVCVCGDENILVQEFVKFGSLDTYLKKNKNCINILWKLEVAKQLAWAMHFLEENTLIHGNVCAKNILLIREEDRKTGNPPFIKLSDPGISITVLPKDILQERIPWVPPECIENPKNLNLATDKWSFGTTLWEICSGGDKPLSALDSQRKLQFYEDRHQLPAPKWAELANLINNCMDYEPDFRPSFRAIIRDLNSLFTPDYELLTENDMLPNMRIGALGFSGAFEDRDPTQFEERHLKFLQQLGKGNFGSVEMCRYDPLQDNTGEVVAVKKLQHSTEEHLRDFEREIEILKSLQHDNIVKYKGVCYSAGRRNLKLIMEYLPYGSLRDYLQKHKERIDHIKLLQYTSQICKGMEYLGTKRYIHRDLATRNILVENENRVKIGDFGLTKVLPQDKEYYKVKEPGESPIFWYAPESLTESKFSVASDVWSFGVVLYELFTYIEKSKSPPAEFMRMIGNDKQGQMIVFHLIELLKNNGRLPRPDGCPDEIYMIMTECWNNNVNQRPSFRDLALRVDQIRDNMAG
Method in brief: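 Mobility-shift (Caliper) read-out of phosphorylated peptide substrate. Compound diluted in 25 mM HEPES pH 7.5, 0.01% Brij-35, 0.01% Triton, 0.5 mM EGTA; enzyme added, then peptide plus ATP in 10 mM MgCl2. Incubated 25 min at 28° C, stopped with EDTA buffer.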

Tyk2-pSTAT4 = test: IL-12 induced pSTAT4 in human PBMC; assay type: cell-based; conditions: read-out: Tyk2-pSTAT4 EC50
Method: (§1) Human PBMC are isolated from buffy coat and are stored frozen for assays as needed. Cells for assay are thawed and resuspended in complete media containing serum, then cells are diluted to 1.67 E6 cells/ml so that 120 μl per well is 200,000 cells. 15 μl of compound or DMSO is added to the well at the desired concentrations and incubated at 1 hr at 37 C. 15 μl of stimulus (final concentration of 1.7 ng/mL IL-12) is added for 30 minutes prior to pSTAT4 and total STAT4 analysis using cell lysates prepared and analyzed by MSD reagents as per manufacturer protocol. The final DMSO concentration of compound in the assay is 0.1%.

JAK2-pSTAT5 = test: GM-CSF induced pSTAT5 in human PBMC; assay type: cell-based; conditions: read-out: JAK2-pSTAT5 EC50
Method: as §1, with “Cells for assay are thawed and resuspended in complete media containing serum, then cells are diluted to 1.67 E6 cells/ml so that 120 μl per well is 200,000 cells.” left out
Cells are prepared for analysis as in the above procedure and 15 μl of GM-CSF (final concentration 5 ng/mL) is added for 20 minutes prior to pSTAT5 and total STAT5 analysis using cell lysates prepared and analyzed by MSD reagents as per manufacturer protocol. The final DMSO concentration of compound in the assay is 0.1%.

[1] = IL-12 induced pSTAT4, human PBMC
[2] = GM-CSF induced pSTAT5, human PBMC

Chain of TYK2 (P29597 whole entry): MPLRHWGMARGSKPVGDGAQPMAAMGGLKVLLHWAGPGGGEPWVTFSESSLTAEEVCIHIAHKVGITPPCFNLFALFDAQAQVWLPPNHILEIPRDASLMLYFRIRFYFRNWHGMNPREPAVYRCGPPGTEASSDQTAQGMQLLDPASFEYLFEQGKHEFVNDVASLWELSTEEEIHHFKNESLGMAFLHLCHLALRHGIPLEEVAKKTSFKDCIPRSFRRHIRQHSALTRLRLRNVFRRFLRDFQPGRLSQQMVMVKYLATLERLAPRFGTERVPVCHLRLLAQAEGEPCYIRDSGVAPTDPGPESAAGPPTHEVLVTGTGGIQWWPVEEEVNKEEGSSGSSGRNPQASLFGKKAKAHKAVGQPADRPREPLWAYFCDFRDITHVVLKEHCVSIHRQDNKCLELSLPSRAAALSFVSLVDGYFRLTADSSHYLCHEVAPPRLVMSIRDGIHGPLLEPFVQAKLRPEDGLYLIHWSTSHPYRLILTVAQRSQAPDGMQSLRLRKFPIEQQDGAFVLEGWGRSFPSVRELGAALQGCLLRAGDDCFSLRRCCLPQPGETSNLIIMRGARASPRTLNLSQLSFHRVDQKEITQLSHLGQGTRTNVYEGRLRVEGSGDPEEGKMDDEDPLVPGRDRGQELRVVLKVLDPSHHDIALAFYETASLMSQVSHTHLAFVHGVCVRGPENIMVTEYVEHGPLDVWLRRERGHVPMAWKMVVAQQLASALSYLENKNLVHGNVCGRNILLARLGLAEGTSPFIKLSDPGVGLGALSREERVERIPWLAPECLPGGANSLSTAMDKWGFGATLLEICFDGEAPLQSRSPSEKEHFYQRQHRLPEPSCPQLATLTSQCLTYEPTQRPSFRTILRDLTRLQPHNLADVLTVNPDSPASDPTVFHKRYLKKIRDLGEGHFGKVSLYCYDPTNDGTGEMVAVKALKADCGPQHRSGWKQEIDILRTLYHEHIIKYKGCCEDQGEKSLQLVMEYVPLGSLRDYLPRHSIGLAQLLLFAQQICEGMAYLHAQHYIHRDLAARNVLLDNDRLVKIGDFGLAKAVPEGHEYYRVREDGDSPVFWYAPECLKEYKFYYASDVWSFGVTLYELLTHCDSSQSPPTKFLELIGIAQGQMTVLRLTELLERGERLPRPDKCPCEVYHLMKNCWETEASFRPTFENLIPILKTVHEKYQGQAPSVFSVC

Row | Compound | Ki (TYK2) [nM] | Ki (JAK2; read-out: JAK2 Ki) [nM] | EC50 (Tyk2-pSTAT4; [1]) [nM] | EC50 (JAK2-pSTAT5; [2]) [µM] | EC50 (Tyk2-pSTAT4; Homo sapiens, PBMC) [nM] | EC50 (JAK2-pSTAT5; Homo sapiens, PBMC) [µM] | Ki (JAK2) [nM]
1 | CC(C)(C(=O)N1CCCC1)c1ccc(Nc2nc(-c3c(F)cccc3F)nc3c2C(=O)NC3)cc1 [Compound I-196, 2-(2,6-difluorophenyl)-4-((4-(2-methyl-1-oxo-1-(pyrrolidin-1-yl)propan-2-yl)phenyl)amino)-6,7-dihydro-5H-pyrrolo[3,4-d]pyrimidin-5-one] | < 10 | 100 to 1000 | < 2000 | > 20 |  |  | 
2 | CC(C)NC(=O)c1ccc(Nc2cc(-c3c(F)cccc3F)nc3c2C(=O)NC3)nc1 [Compound I-138, 6-((2-(2,6-difluorophenyl)-5-oxo-6,7-dihydro-5H-pyrrolo[3,4-b]pyridin-4-yl)amino)-N-isopropylnicotinamide] | < 10 | 10 to 100 |  |  | < 2000 | 2 to 20 | 
3 | CN1CCN(c2ccc(Nc3cc(-c4c(F)cccc4F)nc4c3C(=O)NC4)nc2)CC1 [Compound I-163, 2-(2,6-difluorophenyl)-4-((5-(4-methylpiperazin-1-yl)pyridin-2-yl)amino)-6,7-dihydro-5H-pyrrolo[3,4-b]pyridin-5-one] | < 10 | 10 to 100 | < 2000 | 2 to 20 |  |  | 
4 | O=C1NCc2nc(-c3c(F)cccc3F)cc(Nc3ccc(N4CCC(F)(F)CC4)cn3)c21 [Compound I-182, 2-(2,6-difluorophenyl)-4-((5-(4,4-difluoropiperidin-1-yl)pyridin-2-yl)amino)-6,7-dihydro-5H-pyrrolo[3,4-b]pyridin-5-one] | < 10 | 10 to 100 | < 2000 | 2 to 20 |  |  | 
5 | O=C1NCc2nc(-c3c(F)cccc3F)nc(Nc3ccc([C@@H]4CCNC4=O)cc3)c21 [Compound I-87, (S)-2-(2,6-difluorophenyl)-4-((4-(2-oxopyrrolidin-3-yl)phenyl)amino)-6,7-dihydro-5H-pyrrolo[3,4-d]pyrimidin-5-] | < 10 | 10 to 100 | < 2000 | > 20 |  |  | 
6 | C[C@@H](C(=O)N1CCCCC1)c1ccc(Nc2nc(-c3c(F)cccc3F)nc3c2C(=O)NC3)cc1 [Compound I-207, (R)-2-(2,6-difluorophenyl)-4-((4-(1-oxo-1-(piperidin-1-yl)propan-2-yl)phenyl)amino)-6,7-dihydro-5H-pyrrolo[3,4-d]pyrimidin-5-one] | < 10 | 100 to 1000 |  |  | < 2000 | 2 to 20 | 
7 | O=C(NCC(F)(F)F)c1ccc(Nc2cc(-c3c(F)cccc3F)nc3c2C(=O)NC3)nc1 [Compound I-140, 6-((2-(2,6-difluorophenyl)-5-oxo-6,7-dihydro-5H-pyrrolo[3,4-b]pyridin-4-yl)amino)-N-(2,2,2-trifluoroethyl)nicotinamide] | < 10 | 10 to 100 | < 2000 | 2 to 20 |  |  | 
8 | O=C1NCc2nc(-c3c(F)cccc3F)cc(Nc3ccc(N4CCC(N5CCOCC5)CC4)cn3)c21 [Compound I-142, 2-(2,6-difluorophenyl)-4-((5-(4-morpholinopiperidin-1-yl)pyridin-2-yl)amino)-6,7-dihydro-5H-pyrrolo[3,4-b]pyridin-5-one] | < 10 | 10 to 100 | < 2000 | > 20 |  |  | 
9 | O=C1NCc2nc(-c3c(F)cccc3F)cc(Nc3ccc(N4CCOCC4)cn3)c21 [Compound I-171, 2-(2,6-difluorophenyl)-4-((5-morpholinopyridin-2-yl)amino)-6,7-dihydro-5H-pyrrolo[3,4-b]pyridin-5-one] | < 10 | 10 to 100 | < 2000 | 2 to 20 |  |  | 
10 | CC1(O)CCN(c2ccc(Nc3cc(-c4c(F)cccc4F)nc4c3C(=O)NC4)nc2)CC1 [Compound I-137, 2-(2,6-difluorophenyl)-4-((5-(4-hydroxy-4-methylpiperidin-1-yl)pyridin-2-yl)amino)-6,7-dihydro-5H-pyrrolo[3,4-b]pyridin-5-one] | < 10 | 10 to 100 | < 2000 | < 2 |  |  | 
11 | CC(C)(C(=O)O)c1ccc(Nc2nc(-c3c(F)cccc3F)nc3c2C(=O)NC3)cc1 [Compound I-109, 2-(4-((2-(2,6-difluorophenyl)-5-oxo-6,7-dihydro-5H-pyrrolo[3,4-d]pyrimidin-4-yl)amino)phenyl)-2-methylpropanoic Acid] | < 10 | 100 to 1000 |  | > 20 | 2000 to 20000 |  | 
12 | O=C1NCc2nc(-c3c(F)cccc3F)cc(Nc3ccc(NCCN4CCC(F)(F)CC4)cn3)c21 [Compound I-135, 2-(2,6-difluorophenyl)-4-((5-((2-(4,4-difluoropiperidin-1-yl)ethyl)amino)pyridin-2-yl)amino)-6,7-dihydro-5H-pyrrolo[3,4-b]pyridin-5-one] | < 10 | 10 to 100 | < 2000 | < 2 |  |  | 
13 | COc1ccc(Nc2cc(-c3c(F)cccc3F)nc3c2C(=O)NC3)nc1OC [Compound I-170, 2-(2,6-difluorophenyl)-4-((5,6-dimethoxypyridin-2-yl)amino)-6,7-dihydro-5H-pyrrolo[3,4-b]pyridin-5-one] | < 10 | 10 to 100 | < 2000 | 2 to 20 |  |  | 
14 | CC(C)NC(=O)c1ccc(Nc2cc(-c3c(F)cccc3F)nc3c2C(=O)NC3)cc1 [Compound I-232, 4-((2-(2,6-difluorophenyl)-5-oxo-6,7-dihydro-5H-pyrrolo[3,4-b]pyridin-4-yl)amino)-N-isopropylbenzamide] | < 10 | 10 to 100 |  |  | < 2000 | 2 to 20 | 
15 | O=C1NCc2nc(-c3c(F)cccc3F)nc(Nc3ccc([C@H]4CCCNC4=O)cc3)c21 [Compound I-154, (R)-2-(2,6-difluorophenyl)-4-((4-(2-oxopiperidin-3-yl)phenyl)amino)-6,7-dihydro-5H-pyrrolo[3,4-d]pyrimidin-5-one] | < 10 | 100 to 1000 | < 2000 | > 20 |  |  | 
16 | COc1ccc(Nc2nc(-c3c(F)cccc3F)nc3c2C(=O)NC3)cc1 [Compound I-110, 2-(2,6-difluorophenyl)-4-((4-methoxyphenyl)amino)-6,7-dihydro-5H-pyrrolo[3,4-d]pyrimidin-5-one] | < 10 | > 1000 |  |  | < 2000 | > 20 | 
17 | CCNC(=O)Cc1ccc(Nc2nc(-c3ccccc3Cl)nc3c2C(=O)NC3)cc1 [Compound I-20, 2-(4-((2-(2-chlorophenyl)-5-oxo-6,7-dihydro-5H-pyrrolo[3,4-d]pyrimidin-4-yl)amino)phenyl)-N-ethylacetamide] | 10 to 100 | 100 to 1000 | < 2000 |  |  | > 20 | 
18 | O=C1NCc2nc(-c3c(F)cccc3F)nc(Nc3ccc(CC(=O)N4CCN(CC(F)F)CC4)cc3)c21 [Compound I-78, 4-((4-(2-(4-(2,2-difluoroethyl)piperazin-1-yl)-2-oxoethyl)phenyl)amino)-2-(2,6-difluorophenyl)-6,7-dihydro-5H-pyrrolo[3,4-d]pyrimidin-5-one] | < 10 |  |  |  | < 2000 | > 20 | 10 to 100
19 | O=C1NCc2nc(-c3c(F)cccc3F)nc(Nc3ccc(CC(=O)N4CCC[C@H]4CO)cc3)c21 [Compound I-16, (S)-2-(2,6-difluorophenyl)-4-((4-(2-(2-(hydroxyl-methyl)pyrrolidin-1-yl)-2-oxoethyl)phenyl)amino)-6,7-dihydro-5H-pyrrolo[3,4-d]pyrimidin-5] | < 10 | 100 to 1000 | < 2000 | > 20 |  |  | 
20 | O=C(Cc1ccc(Nc2nc(-c3c(F)cccc3F)nc3c2C(=O)NC3)cc1)NC1CCOCC1 [Compound I-65, 2-(4-((2-(2,6-difluorophenyl)-5-oxo-6,7-dihydro-5H-pyrrolo[3,4-d]pyrimidin-4-yl)amino)phenyl)-N-(tetrahydro-2H-pyran-4-yl)acetamide] | < 10 | 100 to 1000 | < 2000 | > 20 |  |  | 
21 | O=C1NCc2nc(-c3c(F)cccc3F)nc(Nc3ccc(Cn4ccnn4)cc3)c21 [Compound I-128, 4-((4-((1H-1,2,3-triazol-1-yl)methyl)phenyl)amino)-2-(2,6-difluorophenyl)-6,7-dihydro-5H-pyrrolo[3,4-d]pyrimidin-5-one] | < 10 | 100 to 1000 |  |  | < 2000 | > 20 | 
